Calls of active or inactive are those of the source. The calls are words filed in the database; no cut-off is given here.
How the values were obtained:
[1] = Antiproliferative activity against human HN-6 cells assessed as cell growth inhibition incubated for 72 hrs by CCK-8 assay; assay type: functional, cell-based; conditions: HN-6, 72 h
[2] = system: CAL-27; assay: Antiproliferative activity against human CAL-27 cells assessed as cell growth inhibition incubated for 72 hrs by CCK-8 assay; assay type: functional, cell-based; conditions: CAL-27, 72 h
[3] = target: Tubulin; assay: Inhibition of tubulin polymerization (unknown origin) by fluorescence based analysis; assay type: protein-complex assay, Homo sapiens
[4] = Induction of apoptosis in human HN-6 cells assessed as early apoptotic cells at 0.1 micromol/L incubated for 24 hrs by Annexin-V/FITC-PI staining based flow cytometry analysis (reference value: 2.04%); assay type: functional; conditions: dose 0.1 µmol/L, at 0.1 µM
[5] = Induction of apoptosis in human HN-6 cells assessed as early apoptotic cells at 1 micromol/L incubated for 24 hrs by Annexin-V/FITC-PI staining based flow cytometry analysis (reference value: 2.04%); assay type: functional; conditions: dose 1 µmol/L, at 1 µM
[6] = Induction of cell cycle arrest in human HN-6 cells assessed as accumulation of cells at S phase at 0.1 micromol/L incubated for 24 hrs by PI staining based flow cytometry analysi (reference value: 32.12%); assay type: functional; conditions: dose 0.1 µmol/L, at 0.1 µM
[7] = system: HN-6; assay: Inhibition of cell invasion in human HN-6 cells at 200 to 500 nmol/L incubated for 24 hrs by crystal violet staining based transwell assay; assay type: functional; conditions: dose 200-500 nmol/L
[8] = Cmax in rat at 100 mg/kg,IG measured upto 24 hrs by HPLC analysis; assay type: ADME, organism-based; set-up: dose 100 mg/kg, time < 24 hrs, route ig; conditions: in vivo, po
[9] = system: HN-6; assay: Antitumor activity against human HN-6 cells xenografted in mouse assessed as reduction on tumor growth at 80 mg/kg,IG administered daily for 2 weeks; assay type: functional, organism-based
[10] = Induction of cell cycle arrest in human HN-6 cells assessed as accumulation of cells at S phase at 0.1 micromol/L incubated for 24 hrs by PI staining based flow cytometry analysi (reference value: 31.19%); assay type: functional; conditions: dose 0.1 µmol/L, at 0.1 µM
[11] = Induction of apoptosis in human HN-6 cells assessed as late apoptotic cells at 0.1 micromol/L incubated for 24 hrs by Annexin-V/FITC-PI staining based flow cytometry analysis (reference value: 8.81%); assay type: functional; conditions: dose 0.1 µmol/L, at 0.1 µM
[12] = AUC (0 to t) in rat at 100 mg/kg,IG measured upto 24 hrs by HPLC analysis; assay type: ADME, organism-based; set-up: dose 100 mg/kg, time < 24 hrs, route ig; conditions: in vivo, po
[13] = Induction of apoptosis in human HN-6 cells assessed as viable cells at 1 micromol/L incubated for 24 hrs by Annexin-V/FITC-PI staining based flow cytometry analysis (reference value: 97.26%); assay type: functional; conditions: HN-6, 24 h, dose 1 µmol/L, read-out: Activity
[14] = system: HN-6; assay: Induction of cell morphological changes in human HN-6 cells assessed as decrease in tubulin network around nucleus at 100 nmol/L incubated for 24 hrs by DAPI staining based confocal microscopy analysis; assay type: functional
[15] = system: Mus musculus; assay: Antitumor activity against human HN-6 cells xenografted in mouse serum assessed as reduction on SCCAg level at 80 mg/kg,IG administered daily for 2 weeks by ELISA; assay type: functional, organism-based
[16] = system: FaDu; assay: Antiproliferative activity against human FaDu cells assessed as cell growth inhibition incubated for 72 hrs by CCK-8 assay; assay type: functional, cell-based; conditions: read-out: IC50
[17] = system: Mus musculus; assay: Antitumor activity against human HN-6 cells xenografted in mouse serum assessed as reduction on CYFRA21-1 level at 80 mg/kg,IG administered daily for 2 weeks by ELISA; assay type: functional, organism-based
[18] = Tmax in rat at 100 mg/kg,IG measured upto 24 hrs by HPLC analysis; assay type: ADME, organism-based; conditions: in vivo, po
[19] = Antimigratory activity in human HN-6 cells assessed as inhibition of cell migration at 0.1 micromol/L measured after 24 hrs by scratch wound assay based fluorescence microscope analysis; assay type: functional; conditions: HN-6, 24 h, dose 0.1 µmol/L
[20] = system: Mus musculus; assay: Antitumor activity against human HN-6 cells xenografted in mouse serum assessed as reduction on TPS level at 80 mg/kg,IG administered daily for 2 weeks by ELISA; assay type: functional, organism-based
[21] = Induction of apoptosis in human HN-6 cells assessed as necrotic cells at 1 micromol/L incubated for 24 hrs by Annexin-V/FITC-PI staining based flow cytometry analysis (reference value: 2.08%); assay type: functional; conditions: dose 1 µmol/L, at 1 µM
[22] = Acute toxicity in Kunming mouse assessed as adverse effect at 1 g/Kg,IG after 15 days of administration; conditions: in vivo, po, 1000 mg/kg, 360 h, time 15 day
[23] = Induction of cell cycle arrest in human HN-6 cells assessed as accumulation of cells at G1 phase at 0.1 micromol/L incubated for 24 hrs by PI staining based flow cytometry analysi (reference value: 45.33%); assay type: functional; conditions: dose 0.1 µmol/L, at 0.1 µM
[24] = Cytotoxicity against human HFF-1 clls assessed as reduction in cell viability incubated for 72 hrs by CCK-8 assay; assay type: toxicity, cell-based; conditions: HFF-1 cells
[25] = Induction of apoptosis in human HN-6 cells assessed as late apoptotic cells at 1 micromol/L incubated for 24 hrs by Annexin-V/FITC-PI staining based flow cytometry analysis (reference value: 8.81%); assay type: functional; conditions: dose 1 µmol/L, at 1 µM
[26] = Induction of apoptosis in human HN-6 cells assessed as necrotic cells at 0.1 micromol/L incubated for 24 hrs by Annexin-V/FITC-PI staining based flow cytometry analysis (reference value: 2.08%); assay type: functional; conditions: dose 0.1 µmol/L, at 0.1 µM
[27] = Acute toxicity in IG dosed Kunming mouse assessed as lethal dose after 15 days of administration; assay type: organism-based; conditions: in vivo, po, time 15 day
[28] = target: Tubulin (Homo sapiens) (UniProt P68371+Q9H4B7+P0DPH7+P68366+Q13509+Q71U36+P04350+Q3ZCM7+P07437+P68363+Q9BQE3+Q6PEY2+Q13885+Q9BVA1+Q9BUF5); assay: Inhibition of tubulin polymerization (unknown origin) at 20 micromol/L by fluorescence based analysis; assay type: protein-complex assay; conditions: dose 20.0 µmol/L
[29] = Half life in rat at 100 mg/kg,IG measured upto 24 hrs by HPLC analysis; assay type: ADME, organism-based; conditions: in vivo, po
[30] = Acute toxicity in mouse xenografted with human HN-6 cells assessed as body weight loss at 80 mg/kg,IG administered daily for 2 weeks; assay type: organism-based; conditions: in vivo, po, 336 h
[31] = Induction of apoptosis in human HN-6 cells assessed as viable cells at 0.1 micromol/L incubated for 24 hrs by Annexin-V/FITC-PI staining based flow cytometry analysis (reference value: 97.26%); assay type: functional; conditions: HN-6, 24 h, dose 0.1 µmol/L, read-out: Activity
[32] = Acute toxicity in Kunming mouse assessed as death at 1 g/Kg,IG after 15 days of administration; conditions: in vivo, po, 1000 mg/kg, 360 h, time 15 day
[33] = Acute toxicity in Kunming mouse assessed as hypothermia at 631 mg/kg,IG after 6 hrs of administration; assay type: organism-based; conditions: in vivo, po
[34] = Acute toxicity in Kunming mouse assessed as lethargy at 631 mg/kg,IG after 6 hrs of administration; assay type: organism-based; conditions: in vivo, po
[35] = Acute toxicity in Kunming mouse assessed as weakness at 631 mg/kg,IG after 6 hrs of administration; assay type: organism-based; conditions: in vivo, po
[36] = Acute toxicity in Kunming mouse assessed as change in body weight at 251 mg/kg,IG after 15 days of administration; assay type: organism-based; conditions: in vivo, po, 360 h, time 15 day
[37] = Acute toxicity in Kunming mouse assessed as hypothermia at 1 g/Kg,IG after 2 hrs of administration; conditions: in vivo, po, 1000 mg/kg
[38] = Acute toxicity in Kunming mouse assessed as adverse effect at 251 mg/kg,IG after 15 days of administration; assay type: organism-based; conditions: in vivo, po, 360 h, time 15 day
[39] = Acute toxicity in Kunming mouse assessed as change in body weight at 158 mg/kg,IG after 15 days of administration; assay type: organism-based; conditions: in vivo, po, 360 h, time 15 day
[40] = Acute toxicity in Kunming mouse assessed as death at 398 mg/kg,IG after 15 days of administration; assay type: organism-based; conditions: in vivo, po, 360 h, time 15 day
[41] = Acute toxicity in Kunming mouse assessed as lethargy at 1 g/Kg,IG after 2 hrs of administration; conditions: in vivo, po, 1000 mg/kg
[42] = Acute toxicity in Kunming mouse assessed as weakness at 1 g/Kg,IG after 2 hrs of administration; conditions: in vivo, po, 1000 mg/kg
[43] = Acute toxicity in Kunming mouse assessed as adverse effect at 158 mg/kg,IG after 15 days of administration; assay type: organism-based; conditions: in vivo, po, 360 h, time 15 day

Compound: C=CCOC(=O)Nc1nc2ccc(CCCC)cc2[nH]1
- IC50 [1]: 46.9 nM
- IC50 [2]: 118 nM
- IC50 [3]: 4410 nM
- Activity [4]: 4.98%
- Activity [5]: 12.28%
- Activity [6]: 19.14%
- inhibition [7]: Active
- Cmax [8]: 83 ng/mL
- Activity [9]: Active
- Activity [10]: 64.65%
- Activity [11]: 12.09%
- AUC(0-t) at 24 h [12]: 386 ng·h/mL
- viability at 1 µM [13]: 60.8%
- Activity [14]: Active
- Activity [15]: Active
- IC50 [16]: 126 nM
- Activity [17]: Active
- Tmax [18]: 4 h
- inhibition at 0.1 µM [19]: 8.1%
- Activity [20]: Active
- Activity [21]: 5.48%
- Activity [22]: Non-Toxic
- Activity [23]: 14.51%
- IC50 at 72 h [24]: > 20000 nM
- Activity [25]: 21.43%
- Activity [26]: 3.77%
- LD50 at 360 h [27]: > 1000 mg/kg
- inhibition [28]: 86.6%
- half-life [29]: 2.19 h
- Activity [30]: Non-Toxic
- viability at 0.1 µM [31]: 79.3%
- Activity [32]: Non-Toxic

Compound: CCCCc1ccc2[nH]c(NC(=O)OC)nc2c1 [PARBENDAZOLE]
- IC50 [1]: 102 nM
- IC50 [2]: 173 nM
- IC50 [3]: 9550 nM
- Activity [4]: 13.03%
- Activity [5]: 16.34%
- Activity [6]: 16.02%
- inhibition [7]: Active
- Cmax [8]: 141 ng/mL
- Activity [10]: 69.09%
- Activity [11]: 21.71%
- AUC(0-t) at 24 h [12]: 403 ng·h/mL
- viability at 1 µM [13]: 51.8%
- Activity [14]: Active
- IC50 [16]: 160 nM
- Tmax [18]: 4 h
- inhibition at 0.1 µM [19]: 12.8%
- Activity [21]: 5.94%
- Activity [22]: Non-Toxic
- Activity [23]: 13.56%
- IC50 at 72 h [24]: > 20000 nM
- Activity [25]: 25.96%
- Activity [26]: 4.46%
- LD50 at 360 h [27]: > 1000 mg/kg
- inhibition [28]: 76.7%
- half-life [29]: 2.16 h
- viability at 0.1 µM [31]: 60.8%
- Activity [32]: Non-Toxic

Compound: CCCCc1ccc2nc(NC(=O)OC(C)C)[nH]c2c1
- IC50 [1]: 34.9 nM
- IC50 [2]: 93.1 nM
- IC50 [3]: 4040 nM
- Activity [4]: 11.53%
- Activity [5]: 16.44%
- Activity [6]: 16.16%
- inhibition [7]: Active
- Activity [33]: Toxic
- Activity [34]: Toxic
- Cmax [8]: 169 ng/mL
- Activity [9]: Active
- Activity [35]: Toxic
- Activity [10]: 68.08%
- Activity [11]: 20.59%
- AUC(0-t) at 24 h [12]: 542 ng·h/mL
- viability at 1 µM [13]: 52.6%
- Activity [36]: Non-Toxic
- Activity [37]: Toxic
- Activity [14]: Active
- Activity [38]: Non-Toxic
- Activity [15]: Active
- IC50 [16]: 126 nM
- Activity [39]: Non-Toxic
- Activity [40]: Toxic
- Activity [17]: Active
- Tmax [18]: 2 h
- inhibition at 0.1 µM [19]: 6.27%
- Activity [41]: Toxic
- Activity [20]: Active
- Activity [42]: Toxic
- Activity [21]: 6.23%
- Activity [23]: 14.26%
- IC50 at 72 h [24]: > 20000 nM
- Activity [25]: 24.75%
- Activity [43]: Non-Toxic
- Activity [26]: 5.01%
- LD50 at 360 h [27]: 341 mg/kg
- inhibition [28]: 98.9%
- half-life [29]: 1.95 h
- Activity [30]: Non-Toxic
- viability at 0.1 µM [31]: 62.9%
